{
  "source": "patent US20080175925A1",
  "about": "“Method and composition for the treatment of herpes virus” (priority 2007, published 2008)",
  "origin": "cited, not measured here",
  "key": {"HSV-1 [1]": {"system": "HSV-1", "settings": "guinea pig model"}, "HSV-1 [2]": {"system": "HSV-1", "settings": "in vitro"}, "[3]": {"system": "Herpesvirus hominis genital strain MVC 70 (herpesvirus h simplex 0-2)", "settings": "solution of 0.02% w/v"}, "[4]": {"system": "Herpesvirus hominis oral stain SUE (herpesvirus h simplex-1)", "settings": "solution of 0.02% w/v"}},
  "data": [
    {"smiles": "Nc1nc2c(ncn2COCCO)c(=O)[nH]1", "note": "[Acyclovir]", "values": [
      {"measurement": "viral titers", "setting": "HSV-1 [1]", "value": "reduced viral titers"},
      {"measurement": "lesion development, duration and severity scores", "setting": "HSV-1 [1]; compared to vehicle control or acyclovir", "value": "did not reduce lesion development, duration or severity"}
    ]},
    {"smiles": "NC(CCC(=O)NC(CS)C(=O)NCC(=O)O)C(=O)O", "note": "(stereo not drawn) [GSH, 2-amino-5-{[2-[(carboxymethyl)amino]-1-(mercaptomethyl)-2-oxoethyl]amino}-5-oxopentanoic acid]", "values": [
      {"measurement": "inhibition of replication of HSV-1", "setting": "HSV-1 [2]; addition of exogenous GSH", "value": "> 99", "unit": "%"},
      {"measurement": "intracellular GSH levels after virus challenge", "setting": "HSV-1 [2]; addition of exogenous GSH to infected cells", "value": "restore its intracellular levels almost up to those found in uninfected cells"}
    ]},
    {"smiles": "[H]/N=C(\\N/C(=N/[H])NCCCCCCNC(=N)NC(=N)Nc1ccc(Cl)cc1)Nc1ccc(Cl)cc1", "note": "[chlorhexidine]", "values": [
      {"measurement": "infectivity of HVH strain MVC 70 (HSV-2)", "setting": "[3]", "value": "reduced the infectivity"},
      {"measurement": "infectivity of HVH strain SUE (HSV-1)", "setting": "[4]", "value": "reduced the infectivity"}
    ]}
  ]
}
